{"source": "patent US20110256241A1", "about": "“METHODS AND COMPOSITIONS FOR THE TREATMENT OF CANCER” (TRASLATIONAL CANCER DRUGS PHARMA, S.L., priority 2008, published 2011)", "type_in_all_cases": "cell-based, human", "key": {"H460 cells": {"tested_on": "H460 cells", "test": "Affymetrix gene expression analysis of 5-FU metabolization pathway", "design": "key to RRM2 (Ribonucleotide Reductase) gene expression / TYMS (Thymidylate synthetase) gene expression / DUT (Deoxyuridine triphosphatase) gene expression: Signal Log Ratio, base 2 (1.0 = 2-fold increase, 0 = no change)", "method": "The RNAs from the biopsies selected were isolated for microarrays and QT-PCR, using RNeasy Mini Kit (QIAGEN, Hilden, Germany) following the instructions of the manufactures. Samples were prepared and the array hybridized according to the Affymetrix GeneChip Expression Analysis Technical Manual. Hybridization to Affymetrix U133plus2 GeneChips (54,614 probe sets, representing 47,000 transcripts), staining, washing and scanning procedures were carried out at the Genomic Facility in the National Center of Biotechnology (Madrid, Spain) as described in www.affymetrix.com (Affymetrix, Santa Clara, Calif.). The Signal Log Ratio estimates the magnitude and direction of change of a transcript. The log scale used is base 2, thus a Signal Log Ratio of 1.0 indicates an increase of the transcript level by 2 fold and −1.0 indicates a decrease by 2 fold. A Signal Log Ratio of zero would indicate no change.\nWith the aim of further investigating the mechanism of ChoKIs sensitization to the antitumoral effect of 5-FU, a gene expression analysis of the 5-FU-metabolisation pathway was performed in H460 cells treated at different times with MN58b and RSM-932A using affymetrix technology."}, "[1]": {"tested_on": "DR5 (TNFRSF10B or TRAIL-R2) in DLD-1 cell line", "test": "DR5 levels by quantitative PCR", "method": "(§1) 1 μg of RNA was used to generate cDNA using High-Capacity cDNA Archive Kit (Applied Biosystems), and quantitative real-time PCR was carried out in triplicate using the ABI PRISM 7700 Sequence Detector (Applied Biosystems). GAPDH and 18S ribosomal mRNA were amplified as internal controls. Probes used for amplification were from Applied Biosystems as Taqman Gene Expression Assays (ASAH1: HS00602774—M1 Taqman Probe, ASAH2: HS00184096_M1 Taqman Probe and ASAH3: HS00370322_M1 Taqman Probe, DUT: HS00798995_S1 Taqman Probe, TYMS: HS00426591_M1 Taqman Probe, UPP1: HS00427695—M1 Taqman Probe, RRM2: HS00357247_G1 Taqman Probe). The 2-^ΔΔCt method was used (Livak K J., Methods. 2001; 25:402-8) to calculate the relative expression of each gene.\n(§2) TRAIL is a member of the tumour necrosis factor (TNF) superfamily and can induce apoptosis by the extrinsic pathway associated via stimulation of death receptors DR4 (TNFRSF10A or TRAIL-R1) and DR5 (TNFRSF10B or TRAIL-R2). In order to determine the mechanism of the effectivity of the combined therapy of TRAIL and ChoK inhibitors, DR5 and DR4 levels were analysed by quantitative PCR in DLD-1 and SW620 cell lines after treatments with MN58b, TRAIL or their simultaneous combination."}, "[2]": {"tested_on": "DR5 (TNFRSF10B or TRAIL-R2) in SW620 cell line", "test": "DR5 levels by quantitative PCR", "method": "as §1, §2"}, "DLD-1 cells": {"tested_on": "DLD-1 cells", "test": "Apoptosis detection by flow cytometry, Annexin V & IP", "conditions": "DLD-1, 7 hours treatment", "method": "Cell death was analysed by flow cytometry using de Aposcreen Annexin V Apoptosis Kit (Southern Biotech) according to manufacturer procedures. Cells were seeded at 4×10^5 cells per well in six-well. Twenty-four hours later, cells were treated with the indicated compounds. Cells were rinsed twice in cold PBS and after removing it cells were resuspended in cold 1× binding buffer to a concentration from 1×10^6 to 1×10^7 cells/mL. 100 μl of these cells were collected in a flow cytometry tube and 10 μl of Annexin V were added. After gently vortexing, tubes were incubated for 15 minutes on ice, protected from light. Without washing, 380 μl of 1× binding buffer were added to each sample prior to 10 μl of propidium iodine. Cells were immediately analysed by flow cytometry.\nThe synergism observed in vitro was also analysed by flow cytometry using Annexin V & IP staining to distinguish between apoptosis and necrosis or late apoptosis. […] When DLD-1 cells are treated with TRAIL alone there is a 35% of apoptosis. In combination tumour cell death is amplified up to 50%. When DLD-1 are treated with RSM-932A (TCD-717) in combination with TRAIL there is a 55% increase in tumour cell death but mainly the necrotic or late apoptosis population because RSM-932A (TCD-717) has an effect that is faster than MN58. […]"}}}
{"smiles": "CN(C)c1cc[n+](Cc2ccc(CCCCc3ccc(C[n+]4ccc(N(C)C)cc4)cc3)cc2)cc1", "note": "[MN58b, 1,4-(4-4′-Bis-((4-(dimethylamine)pyridinium-1-yl)methyl)diphenyl)butane dibromide]", "values": [{"measurement": "DUT (Deoxyuridine triphosphatase) gene expression", "setting": "H460 cells; H460, 9 h", "value": "−1.17"}, {"measurement": "RRM2 (Ribonucleotide Reductase) gene expression", "setting": "H460 cells; H460, 9 h", "value": "−1.48"}, {"measurement": "TYMS (Thymidylate synthetase) gene expression", "setting": "H460 cells; H460, 9 h", "value": "−1.30"}, {"measurement": "UPP1 (Uridine phosphorylase 1) gene expression", "setting": "H460 cells; H460, 9 h", "value": "+1.54"}, {"measurement": "DUT (Deoxyuridine triphosphatase) gene expression", "setting": "H460 cells; H460, 24 h", "value": "−2.03"}, {"measurement": "RRM2 (Ribonucleotide Reductase) gene expression", "setting": "H460 cells; H460, 24 h", "value": "−2.50"}, {"measurement": "TYMS (Thymidylate synthetase) gene expression", "setting": "H460 cells; H460, 24 h", "value": "−2.39"}, {"measurement": "UPP1 (Uridine phosphorylase 1) gene expression", "setting": "H460 cells; H460, 24 h", "value": "+1.76"}, {"measurement": "increase in DR5 levels", "setting": "[1]", "value": 1.6, "unit": "fold"}, {"measurement": "increase in DR5 levels", "setting": "[2]", "value": 2, "unit": "fold"}, {"measurement": "apoptosis", "setting": "DLD-1 cells", "value": "only a little increase in apoptosis"}]}
